Key:
[1] = set-up: method as in doi:10.1200/JCO.2018.36.15_suppl.4110, doi:10.1200/JCO.2017.35.4_suppl.593; settings: napabucasin 240 mg BID in combination with standard treatment; cited from earlier work
[2] = Phase 1 dose-escalation study: safety (DLT, MTD, adverse events); type: in vivo
Experimental: This Phase 1, open-label, dose-escalation study (3 + 3 design) was carried out at the National Cancer Center Hospital East in Japan. Patients received napabucasin 240 mg twice daily (BID) (Cohort 1), 480 mg BID (Cohort 2), or 720 mg BID (Cohort 3). Day 1 was defined as the day the first dose of napabucasin was administered. All patients were hospitalized until PK assessments were completed (Day 30), though patients were permitted to go/stay out during this period at the discretion of the investigators. […] Dose escalation would continue if no DLTs were observed, and if one of the first three patients experienced a DLT within the first cycle an additional three patients would be enrolled. Dose escalation would be halted if ≥ 2 of the first three patients (or ≥ 2 of the six patients, if additional patients were enrolled) experienced a DLT. If ≤ 1 of the patients in Cohort 3 (highest dose) experienced an observable DLT, then three additional patients were enrolled and would receive the highest dose level of napabucasin, and DLTs would be evaluated in the additional patients. Study treatment was given in 28-day cycles until disease progression or intolerable toxicity due to AEs.
Safety endpoints included AEs, drug-related AEs, vital signs, body weight, laboratory values, and 12-lead ECG. All details of AEs were recorded, including the severity of the event. The severity of AEs was classified according to CTCAE v4.0-JCOG. Napabucasin dose could be reduced or interrupted due to AEs if considered necessary by the investigators, and later reinstated if the AE recovered to Grade 2 or lower. It could also be permanently discontinued in patients who met the discontinuation criteria, which included AEs that rendered trial continuation difficult, aggravation of underlying disease, and withdrawal of consent. Body weight was measured at baseline and Day 29 of Cycle 2, and every 28 days in subsequent cycles. Vital signs were measured at baseline, Days 1, 2, 8, 15, and 22 of Cycle 1, Days 29, 36, 43, and 50 of Cycle 2, and every 28 days in subsequent cycles. 12-lead ECG was measured at baseline and Day 57 in Cycle 3, and every 28 days in subsequent cycles. Laboratory values were recorded at baseline, Days 8, 15, and 22 in Cycle 1, Days 29, 36, 43, and 50 in Cycle 2, and every 28 days in subsequent cycles.
The safety and antitumor activity (intention-to-treat [ITT]) analysis populations included all patients that received at least one dose of napabucasin. The DLT analysis population included all patients that received at least one dose of napabucasin with at least 80% compliance ([number of capsules actually ingested/number of capsules that should have been ingested per dose […]] × 100) during the DLT evaluation period, and those patients who experienced DLT during the evaluation period regardless of compliance. The PK population included all patients that received at least one dose of napabucasin and had plasma napabucasin concentration data for at least one-time point after the first dose of napabucasin.

[3] = all grades, all cohorts, 14 patients

## CC(=O)c1cc2c(o1)C(=O)c1ccccc1C2=O [napabucasin]
[1]
  DLTs: no DLTs
[2]; 28-day cycles, BID dosing
  MTD (maximum tolerated dose): 1440 mg/day
[2]; Cohort 1, 480 mg/day, n = 3
  Any drug-related adverse event, Grade 1: 1 (33.3) Number of patients (%)
  Drug-related abdominal pain lower (Grade 1): 0 (0.0) Number of patients (%)
  Drug-related anorexia, Grade 1: 1 (33.3) Number of patients (%)
  Drug-related anorexia, Grade 2: 0 (0.0) Number of patients (%)
  Drug-related anorexia, Grade 3: 0 (0.0) Number of patients (%)
  Drug-related diarrhea, Grade 1: 1 (33.3) Number of patients (%)
  Drug-related nausea (Grade 1): 0 (0.0) Number of patients (%)
  Drug-related rash (Grade 1): 0 (0.0) Number of patients (%)
  Drug-related urinary tract infection (Grade 1): 0 (0.0) Number of patients (%)
[2]; Cohort 2, 960 mg/day, n = 4
  Any drug-related adverse event, Grade 1: 4 (100) Number of patients (%)
  Drug-related abdominal pain lower (Grade 1): 1 (25.0) Number of patients (%)
  Drug-related anorexia, Grade 1: 0 (0.0) Number of patients (%)
  Drug-related anorexia, Grade 2: 0 (0.0) Number of patients (%)
  Drug-related anorexia, Grade 3: 0 (0.0) Number of patients (%)
  Drug-related diarrhea, Grade 1: 3 (75.0) Number of patients (%)
  Drug-related nausea (Grade 1): 0 (0.0) Number of patients (%)
  Drug-related rash (Grade 1): 1 (25.0) Number of patients (%)
  Drug-related urinary tract infection (Grade 1): 1 (25.0) Number of patients (%)
[2]; Cohort 3, 1440 mg/day, n = 7
  Any drug-related adverse event, Grade 1: 4 (57.1) Number of patients (%)
  Any drug-related adverse event, Grade 2: 1 (14.3) Number of patients (%)
  Any drug-related adverse event, Grade 3: 1 (14.3) Number of patients (%)
  Drug-related abdominal pain lower (Grade 1): 0 (0.0) Number of patients (%)
  Drug-related anorexia, Grade 1: 0 (0.0) Number of patients (%)
  Drug-related anorexia, Grade 2: 1 (14.3) Number of patients (%)
  Drug-related anorexia, Grade 3: 1 (14.3) Number of patients (%)
  Drug-related diarrhea, Grade 1: 4 (57.1) Number of patients (%)
  Drug-related diarrhea, Grade 3: 1 (14.3) Number of patients (%)
  Drug-related nausea (Grade 1): 4 (57.1) Number of patients (%)
  Drug-related rash (Grade 1): 0 (0.0) Number of patients (%)
  Drug-related urinary tract infection (Grade 1): 0 (0.0) Number of patients (%)
[2]; after the first dose
  Initial onset of nausea, most frequently observed: 1 to 14 days
[2]; all cohorts, 14 patients
  Drug-related nausea, number of patients: 4 n
  Drug-related vomiting, number of patients: 3 n
[2]; [3]
  Drug-related anorexia, number of patients: 3 n
  Drug-related diarrhea, number of patients: 9 n
[2]; human, in vivo
  Any drug-related adverse event, Grade 1: 9 (64.3) Number of patients (%)
  Any drug-related adverse event, Grade 2: 1 (7.1) Number of patients (%)
  Any drug-related adverse event, Grade 3: 1 (7.1) Number of patients (%)
  Drug-related abdominal pain lower (Grade 1): 1 (7.1) Number of patients (%)
  Drug-related anorexia, Grade 1: 1 (7.1) Number of patients (%)
  Drug-related anorexia, Grade 2: 1 (7.1) Number of patients (%)
  Drug-related anorexia, Grade 3: 1 (7.1) Number of patients (%)
  Drug-related diarrhea, Grade 1: 8 (57.1) Number of patients (%)
  Drug-related diarrhea, Grade 3: 1 (7.1) Number of patients (%)
  Drug-related nausea (Grade 1): 4 (28.6) Number of patients (%)
  Drug-related rash (Grade 1): 1 (7.1) Number of patients (%)
  Drug-related urinary tract infection (Grade 1): 1 (7.1) Number of patients (%)
  Drug-related vomiting (Grade 1): 3 (21.4) Number of patients (%)
  Initial onset of diarrhea and vomiting, most frequently observed: 1 to 7 days
  Patients who experienced drug-related AEs: 11 patients
  Patients with AEs reported: 14 patients
[2]; in vivo
  Dose reductions due to AEs: no dose reductions due to AEs
  Patients with dose interruptions due to AEs: five
[2]; n = 14
  Deaths due to AEs: No patients died due to AEs

Source: article PMC7188713, “Phase 1 study of napabucasin, a cancer stemness inhibitor, in patients with advanced solid tumors” (Cancer Chemotherapy and Pharmacology, 2020)
